Patent US20040229825A1, “Pharmaceutical composition for treatment of infection with drug resistant bacterium and disinfectant” (priority 2003, published 2004)
Values after ≈ are worked out from the molar mass of the structure shown. Read-outs that look alike come from different tables or passages of the source.

What was measured:
MRSA [1] = test: Enhancement of the antibacterial activity of various antibiotics by flavone on MRSA; type: cell-based, Staphylococcus aureus; details: for MIC: Staphylococcus aureus, antibiotics alone; for MIC +flavone: addition of 50 μg/mL of flavone
Procedure: (§1) MRSA were employed as bacteria to be tested. The antibacterial activity was determined according to the agar plate dilution method defined by Japan Society of Chemotherapy (Chemotherapy 29(1), 76-79(1981)). The employed plate medium for the measurement of sensitivity was semisynthetic medium based on Mueller-Hinton Agar, and the bacteria solution for seeding was prepared by incubating the test bacterium in Mueller-Hinton Broth at 37° C. for 20 hours, followed by diluting in 0.85% saline to give 10^6 CFU/mL. The test samples were produced in two times-serial dilution method. To this plate medium for the measurement of sensitivity, was seeded a bacteria solution with a Micro Planter® (Sakuma Seisakusho). After incubating at 37° C. for 20 hours, a minimum inhibitory concentration (MIC) was determined. […] In addition, MIC50 indicates a concentration yielding the proliferation inhibitory effect in 50% of total number of MRSA strains, whilst MIC90 indicates a concentration yielding the proliferation inhibitory effect in 90% of total number of MRSA strains.
Antibacterial Activities of Various β-Lactam Antibiotics on MRSA with 50 μg/mL of Flavone

MRSA infected mouse = test: Antibacterial activity on MRSA infected mouse (survival rate after 5 days); type: in vivo
Procedure: MRSA was incubated with Brain-Heart Infusion medium at 37° C. for 18 hours, and then the bacteria were collected and washed, followed by resuspension in saline. The suspension was admixed in an aqueous 5% gastric mucin solution and the concentration was adjusted to a predetermined value. Then, 0.2 mL of the mixture was intraperitoneally administered to an ICR strain SPF mouse. At one hour after the infection, various concentrations of β-lactam agents and rutin (0.2 mL) was subcutaneously administered, and survival rate was analyzed after 5 days and thus the effectiveness was evaluated. In addition, the effectiveness by oral administration (0.2 mL) was evaluated and various concentrations of β-lactam agents and rutin (0.2 mL) were administered using a gastric probe 1 hour or 5 hours prior to the infection.

MRSA [2] = test: Antibacterial activity of flavonoids on MRSA (agar plate dilution method, MIC); type: cell-based, Staphylococcus aureus; details: flavonoid alone; for MIC50 / MIC90 / MIC / MIC range: MRSA 20 strains; for MIC: 20 h
Procedure: as §1

[3] = Dissolution of rutin (auxiliary effects of L-arginine hydrochloride and L-cysteine); solubility in water; type: physicochemical
Procedure: To the solution B, is added 3.5 mL of the solution A. After adjusting the pH of the mixture to 8.5 with HCl, the mixture is filtered to give an injectable.

[4] = Staphylococcus aureus, read-out: MIC50
[5] = Staphylococcus aureus, read-out: MIC90

Q: With `Cc1onc(-c2ccccc2)c1C(=O)N[C@@H]1C(=O)N2[C@@H]1SC(C)(C)[C@@H]2C(=O)O` [oxacillin] as the molecule, how does the MIC (MRSA [1]) read?
A: Its MIC is 512 µg/mL.

Q: And the “MIC +flavone” value (MRSA [1])?
A: Its value is 1 µg/mL.

Q: What about the survival rate (MRSA infected mouse; antibiotic alone, 0.5 mg/mouse, after 5 days) of the same molecule?
A: Its survival rate is 20%.

Q: What about the survival rate (MRSA infected mouse; antibiotic alone, 1 mg/mouse, after 5 days) of the same molecule?
A: Its survival rate is 0%.

Q: And the survival rate (MRSA infected mouse; antibiotic alone, 5 mg/mouse, after 5 days)?
A: Its survival rate is 20%.

Q: What about the survival rate (MRSA infected mouse; antibiotic alone, 10 mg/mouse, after 5 days) of the same molecule?
A: The survival rate was 20%.

Q: What about the survival rate (MRSA infected mouse; antibiotic alone, 15 mg/mouse, after 5 days) of the same molecule?
A: Its survival rate is 0%.

Q: What about the survival rate (MRSA infected mouse; oral, antibiotic 10 mg/mouse with rutin 5 mg/mouse) of the same molecule?
A: Its survival rate is 20%.

Q: What about the survival rate (MRSA infected mouse; oral, antibiotic 10 mg/mouse with rutin 10 mg/mouse) of the same molecule?
A: The survival rate was 20%.

Q: And the survival rate (MRSA infected mouse; oral, antibiotic 15 mg/mouse with rutin 5 mg/mouse)?
A: The survival rate was 40%.

Q: What about the survival rate (MRSA infected mouse; oral, antibiotic 15 mg/mouse with rutin 10 mg/mouse) of the same molecule?
A: The survival rate was 40%.

Q: What about the survival rate (MRSA infected mouse; oxacillin alone, all doses) of the same molecule?
A: The survival rate was no more than 20%.

Q: And the survival rate (MRSA infected mouse; subcutaneous, antibiotic 10 mg/mouse with rutin 5 mg/mouse)?
A: The survival rate was 40%.

Q: What about the survival rate (MRSA infected mouse; subcutaneous, antibiotic 10 mg/mouse with rutin 10 mg/mouse) of the same molecule?
A: Its survival rate is 80%.

Q: What about the survival rate (MRSA infected mouse; subcutaneous, antibiotic 15 mg/mouse with rutin 5 mg/mouse) of the same molecule?
A: Its survival rate is 60%.

Q: And the survival rate (MRSA infected mouse; subcutaneous, antibiotic 15 mg/mouse with rutin 10 mg/mouse)?
A: The survival rate was 60%.

Q: With `O=C1c2ccc(O)cc2O[C@H](c2ccc(O)c(O)c2)[C@H]1O` [fustin] as the molecule, how does the MIC50 (MRSA [2]; [4]) read?
A: Its MIC50 is 500 µg/mL (≈ 1730 µM).

Q: And the MIC90 (MRSA [2]; [5])?
A: The MIC90 was 500 µg/mL (≈ 1730 µM).

Q: With `CO/N=C(\C(=O)N[C@@H]1C(=O)N2C(C(=O)O)=C(COC(C)=O)CS[C@H]12)c1csc(N)n1` [cefotaxime] as the molecule, how does the MIC (MRSA [1]) read?
A: Its MIC is greater than 1020 µg/mL.

Q: And the “MIC +flavone” value (MRSA [1])?
A: Its value is 64 µg/mL.

Q: What does the source list for `O=C(/C=C/c1ccc(O)c(O)c1)c1ccc(O)cc1O` [butein]?
A: MIC (MRSA [2]; Staphylococcus aureus): 125 to 250 µg/mL (≈ 459 to 918 µM); MIC50 (MRSA [2]; [4]): 250 µg/mL (≈ 918 µM); MIC90 (MRSA [2]; [5]): 250 µg/mL (≈ 918 µM)

Q: For `O=c1cc(-c2ccccc2)oc2cc(O)c(O)cc12` [6,7-dihydroxyflavone], which MIC50 (MRSA [2]; [4]) is on record?
A: Its MIC50 is 62.5 µg/mL (≈ 246 µM).

Q: What about the MIC90 (MRSA [2]; [5]) of the same molecule?
A: The MIC90 was 125 µg/mL (≈ 492 µM).

Q: And the “antibacterial activity on MRSA (in words)” value (“antibacterial activity” for short) (MRSA [2])?
A: The value was “potent antibacterial activity”.

Q: With `COc1ccc(-c2oc3cc(O)cc(O)c3c(=O)c2O)cc1` [kaempferid] as the molecule, how does the MIC50 (MRSA [2]) read?
A: The MIC50 was 125 µg/mL (≈ 416 µM).

Q: And the MIC90 (MRSA [2])?
A: The MIC90 was 125 µg/mL (≈ 416 µM).

Q: And the MIC range (MRSA [2])?
A: The MIC range was 15.6 to 125 µg/mL.

Q: And the “antibacterial activity” value (MRSA [2])?
A: Its value is “potent antibacterial activity”.

Q: With `CC1(C)S[C@@H]2[C@H](NC(=O)C(C(=O)O)c3ccccc3)C(=O)N2[C@H]1C(=O)O` (stereo partly drawn) [carbenicillin] as the molecule, how does the MIC (MRSA [1]) read?
A: The MIC was greater than 256 µg/mL.

Q: And the “MIC +flavone” value (MRSA [1])?
A: The value was 4 µg/mL.

Q: Which MIC (MRSA [2]; Staphylococcus aureus) does the source give for `O=c1cc(-c2ccc(O)c(O)c2)oc2ccccc12` [3′,4′-dihydroxyflavone] here?
A: The MIC was 62.5 to 250 µg/mL (≈ 246 to 983 µM).

Q: And the MIC50 (MRSA [2]; [4])?
A: The MIC50 was 125 µg/mL (≈ 492 µM).

Q: And the MIC90 (MRSA [2]; [5])?
A: Its MIC90 is 250 µg/mL (≈ 983 µM).

Q: What about the “antibacterial activity” value (MRSA [2]) of the same molecule?
A: Its value is “potent antibacterial activity”.

Q: For `C[C@@H]1O[C@@H](OC[C@H]2O[C@@H](Oc3c(-c4ccc(O)c(O)c4)oc4cc(O)cc(O)c4c3=O)[C@H](O)[C@@H](O)[C@@H]2O)[C@H](O)[C@H](O)[C@H]1O` [rutin], which survival rate (MRSA infected mouse; rutin alone, oral, 1 mg/mouse) is on record?
A: Its survival rate is 20%.

Q: What about the survival rate (MRSA infected mouse; rutin alone, oral, 5 mg/mouse) of the same molecule?
A: Its survival rate is 20%.

Q: And the survival rate (MRSA infected mouse; rutin alone, oral, 10 mg/mouse)?
A: The survival rate was 20%.

Q: And the survival rate (MRSA infected mouse; rutin alone, oral, 15 mg/mouse)?
A: The survival rate was 40%.

Q: And the survival rate (MRSA infected mouse; rutin alone, subcutaneous, 1 mg/mouse)?
A: The survival rate was 40%.

Q: And the survival rate (MRSA infected mouse; rutin alone, subcutaneous, 5 mg/mouse)?
A: The survival rate was 40%.

Q: And the survival rate (MRSA infected mouse; rutin alone, subcutaneous, 10 mg/mouse)?
A: Its survival rate is 20%.

Q: And the survival rate (MRSA infected mouse; rutin alone, subcutaneous, 15 mg/mouse)?
A: Its survival rate is 40%.

Q: And the solubility ([3]; aqueous with cosolvent or surfactant or cyclodextrin, solution with 4 mmol L-arginine hydrochloride, 1 mmol L-cysteine, 8 mmol 1 N NaOH, adjusted to pH 8.5, precipitate removed)?
A: The solubility was 49.8 mg/mL (≈ 81600 µM).

Q: With `O=C1c2ccc(O)cc2OC(c2cc(O)c(O)c(O)c2)C1O` (stereo in doubt) [dihydrorobinetin] as the molecule, how does the MIC50 (MRSA [2]) read?
A: The MIC50 was 250 µg/mL (≈ 822 µM).

Q: And the MIC90 (MRSA [2])?
A: Its MIC90 is 250 µg/mL (≈ 822 µM).

Q: And the MIC range (MRSA [2])?
A: The MIC range was 250 µg/mL (≈ 822 µM).

Q: Which MIC (MRSA [2]; Staphylococcus aureus) does the source give for `O=C(CCc1ccc(O)cc1)c1c(O)cc(O)cc1O` [phloretin] here?
A: The MIC was 125 to 250 µg/mL (≈ 456 to 912 µM).

Q: And the MIC50 (MRSA [2]; [4])?
A: The MIC50 was 250 µg/mL (≈ 912 µM).

Q: And the MIC90 (MRSA [2]; [5])?
A: Its MIC90 is 250 µg/mL (≈ 912 µM).

Q: What does the source list for `O=c1c(O)c(-c2cc(O)c(O)c(O)c2)oc2cc(O)cc(O)c12` [myricetin]?
A: MIC (MRSA [2]; Staphylococcus aureus): 250 to 500 µg/mL (≈ 786 to 1570 µM); MIC50 (MRSA [2]; [4]): 500 µg/mL (≈ 1570 µM); MIC90 (MRSA [2]; [5]): 500 µg/mL (≈ 1570 µM)

Q: With `O=c1cc(-c2ccccc2)oc2ccccc12` [flavone] as the molecule, how does the MIC50 (MRSA [2]; [4]) read?
A: Its MIC50 is 62.5 µg/mL (≈ 281 µM).

Q: What about the MIC90 (MRSA [2]; [5]) of the same molecule?
A: The MIC90 was 125 µg/mL (≈ 562 µM).

Q: What about the “solubility in water (in words)” value [3] of the same molecule?
A: The value was “insoluble in water”.

Q: With `CO[C@@]1(NC(=O)Cc2cccs2)C(=O)N2C(C(=O)O)=C(COC(N)=O)CS[C@@H]21` [cefoxitin] as the molecule, how does the MIC (MRSA [1]) read?
A: Its MIC is 512 µg/mL.

Q: What about the “MIC +flavone” value (MRSA [1]) of the same molecule?
A: Its value is 32 µg/mL.

Q: For `O=c1cc(-c2ccccc2)oc2c(O)c(O)ccc12` [7,8-dihydroxyflavone], which MIC (MRSA [2]; Staphylococcus aureus) is on record?
A: Its MIC is 31.3 to 125 µg/mL (≈ 123 to 492 µM).

Q: What about the MIC50 (MRSA [2]; [4]) of the same molecule?
A: Its MIC50 is 62.5 µg/mL (≈ 246 µM).

Q: And the MIC90 (MRSA [2]; [5])?
A: The MIC90 was 125 µg/mL (≈ 492 µM).

Q: And the “antibacterial activity” value (MRSA [2])?
A: The value was “potent antibacterial activity”.
